Two molecules from PMC5983544, “Muscarinic M5 receptors modulate ethanol seeking in rats” (Neuropsychopharmacology, 2018) can be followed below.

The subject of assay [1] is ethanol-preferring (iP) rats. As to the kind of experiment: Ethanol self-administration after bilateral microinjection into dorsolateral (DL) striatum. In kind it is in vivo, rat. The following applies: intra-DL striatum. An excerpt: (§1) Male iP rats (n = 14) were trained to self-administer 10% (v/v) ethanol via lever presses under FR3 operant conditions for approximately 12 weeks, in the presence of a 1-s light conditioned stimulus (CS+) occurring when the ethanol solution was delivered and an olfactory cue (S+ cue; one drop of vanilla essence, placed directly below the ethanol-paired (active) lever), as previously described, followed by surgery and testing. […] Rats were then given 7 days of ethanol self-administration before receiving the alternate treatment in a counterbalanced manner. For full details refer to Supplementary material.
(§2) Microinjections were performed as previously described; for full details see Supplementary material.

Assay [2] concerns ethanol-preferring (iP) rats. As to the kind of experiment: Ethanol self-administration after bilateral microinjection into dorsomedial (DM) striatum. The following applies: intra-DM striatum. It is filed as in vivo, rat.
Text: as §1, §2
There was a main effect of lever (F(1, 15) = 59.4, P < 0.0001) but no effect of treatment (F(1, 15) = 0.22, P = 0.65) (Fig. 5b).

As to `c1cnc2cc3c(cc2n1)[C@@H]1CNC[C@H]3C1` [varenicline], the “ethanol responding vs vehicle” value is on record as “significantly reduced ethanol responding” in assay [1] (5.53 nmol/side, P = 0.0003) and “did not affect ethanol responding” in assay [2] (5.53 nmol/hemisphere). Moreover, the “responding for water vs vehicle” value in assay [1] (5.53 nmol/side, P = 0.96) is “no difference”.

As for `CCN(Cc1ccccc1C(F)(F)F)C(=O)C1CCN(S(=O)(=O)c2ccc3[nH]ncc3c2)CC1` [ML380, 1-((1H-indazol-5-yl)sulfoneyl)-N-ethyl-N-(2-(trifluoromethyl)benzyl)piperidine-4-carboxamide], the “responding for ethanol vs vehicle” value in assay [1] (165 pmol/hemisphere, P = 0.82) is recorded as “no effect”; in assay [2] (165 pmol/hemisphere, P = 0.99) it was “no effect”.
